Values of other authors, collected in patent US20060035976A1, “Methods of preventing headaches with norepinephrine precursors” (priority 2002, published 2006).

Tests used:
[1] = system: microvessel preparations
[2] = system: migraine attacks; details: 100 mg/day; person with Parkinson's disease, concurrently on L-DOPA, benserazide and amantadine
[3] = system: pain; details: 100 mg; including a patient experiencing a cluster headache

| time that increased plasma levels of DOPS and NE remain (after oral administration of DOPS) | time of peak NE levels (after oral ingestion of DOPS) | time of peak plasma levels of DOPS (after oral ingestion of DOPS) | Compound | specific uptake of DOPS [1] | migraine attacks (patient report) [2] | analgesic effects [3] |
| --- | --- | --- | --- | --- | --- | --- |
| at least 12 hours | 5 h | 3 h | N[C@H](C(=O)O)[C@H](O)c1ccc(O)c(O)c1 [DOPS, Threo-3-(3,4-dihydroxyphenyl)serine] | Specific uptake of DOPS has also been demonstrated |  |  |
|  |  |  | N[C@H](C(=O)O)[C@H](O)c1ccc(O)c(O)c1 [L-DOPS] |  | migraine attacks were resolved | alleged analgesic effects |
